Data as given in publication PMC10251139 (SLAS discovery : advancing life sciences R & D, 2023).

Target: T1, PLCγ2 (Homo sapiens, UniProt P16885)
T1 sequence (P16885 1-1195): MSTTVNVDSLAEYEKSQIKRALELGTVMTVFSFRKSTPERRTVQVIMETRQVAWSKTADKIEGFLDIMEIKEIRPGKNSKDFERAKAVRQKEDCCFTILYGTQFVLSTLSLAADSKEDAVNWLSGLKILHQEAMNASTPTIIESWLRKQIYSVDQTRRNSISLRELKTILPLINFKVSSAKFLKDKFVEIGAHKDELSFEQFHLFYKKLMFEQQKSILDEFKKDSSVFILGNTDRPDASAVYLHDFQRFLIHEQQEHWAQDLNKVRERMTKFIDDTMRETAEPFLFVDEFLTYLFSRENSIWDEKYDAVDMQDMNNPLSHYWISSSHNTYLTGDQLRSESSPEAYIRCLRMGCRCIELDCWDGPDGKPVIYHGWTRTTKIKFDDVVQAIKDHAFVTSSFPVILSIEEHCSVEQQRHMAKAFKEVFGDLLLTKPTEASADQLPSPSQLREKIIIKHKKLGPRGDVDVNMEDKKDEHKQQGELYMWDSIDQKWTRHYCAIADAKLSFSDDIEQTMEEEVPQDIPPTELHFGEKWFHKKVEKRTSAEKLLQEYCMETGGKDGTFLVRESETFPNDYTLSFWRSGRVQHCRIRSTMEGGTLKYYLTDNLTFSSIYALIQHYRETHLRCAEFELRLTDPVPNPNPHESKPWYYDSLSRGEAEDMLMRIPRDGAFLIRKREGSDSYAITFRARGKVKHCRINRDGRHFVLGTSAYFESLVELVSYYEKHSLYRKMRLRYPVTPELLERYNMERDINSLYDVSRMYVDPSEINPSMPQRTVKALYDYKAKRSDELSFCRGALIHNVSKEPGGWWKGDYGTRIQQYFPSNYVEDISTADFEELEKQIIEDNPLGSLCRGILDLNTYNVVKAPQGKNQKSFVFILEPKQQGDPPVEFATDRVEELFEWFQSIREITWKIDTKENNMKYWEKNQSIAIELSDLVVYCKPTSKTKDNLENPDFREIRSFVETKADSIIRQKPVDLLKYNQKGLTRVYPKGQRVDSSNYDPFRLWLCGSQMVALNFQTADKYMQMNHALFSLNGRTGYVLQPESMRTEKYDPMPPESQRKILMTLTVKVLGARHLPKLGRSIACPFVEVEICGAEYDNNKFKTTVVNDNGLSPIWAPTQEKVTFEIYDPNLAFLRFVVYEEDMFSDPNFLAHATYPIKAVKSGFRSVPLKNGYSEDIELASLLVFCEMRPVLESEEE
Assay: inhibition of C8CF3-coumarin processing by purified enzyme
Type: biochemical

- IC50: 27.2 µM
Compound: Nc1ncnc2c1ncn2[C@@H]1O[C@H](COP(=O)(O)OP(=O)(O)OP(=O)(O)O)[C@@H](O)[C@H]1O [adenosine triphosphate]
